Where “and” joins values, the source holds several entries; their conditions need not be identical. Identical values can stand only once. Toxic doses and inconclusive results are not listed.
Test system: BDF1 mice, intracerebral L1210 leukemia, survival T/C
Experiment: NCI In Vivo Anticancer Drug Screen. Data for tumor model L1210 Leukemia (intracerebral) in B6D2F1 (BDF1) mice
Conditions: endpoint: mean survival time, higher = longer survival
Procedure, shortened: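 Tumour was transplanted, animals received compound or vehicle, then survival in each group was measured and treated divided by control.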

## O=NN(CCCl)C(=O)NCCCl
dose: 2.0 mg/kg/injection, schedule: Q01DX009 (ip), vehicle: saline
  T/C: 122 % of control
dose: 3.0 mg/kg/injection, schedule: Q04DX003 (ip), vehicle: saline
  T/C: 151 % of control
dose: 3.7 mg/kg/injection, schedule: Q01DX001 (ip), vehicle: other
  T/C: 114 % of control
dose: 4.0 mg/kg/injection, schedule: Q01DX009 (ip), vehicle: other
  T/C: 174 % of control
dose: 4.0 mg/kg/injection, schedule: Q01DX009 (ip), vehicle: saline
  T/C: 154 % of control
dose: 5.0 mg/kg/injection, schedule: Q01DX001 (ip), vehicle: other
  T/C: 117 % of control
dose: 5.0 mg/kg/injection, schedule: Q01DX001 (ip), vehicle: saline
  T/C: 121 % of control
dose: 6.0 mg/kg/injection, schedule: Q04DX003 (ip), vehicle: saline
  T/C: 173 % of control
dose: 7.0 mg/kg/injection, schedule: Q01DX001 (ip), vehicle: other
  T/C: 119 % of control
dose: 8.0 mg/kg/injection, schedule: Q01DX005 (ip), vehicle: saline
  T/C: 175 % of control
dose: 8.0 mg/kg/injection, schedule: Q01DX009 (ip), vehicle: other
  T/C: 225 % of control
dose: 8.0 mg/kg/injection, schedule: Q01DX009 (ip), vehicle: saline
  T/C: 197 % of control
dose: 8.4 mg/kg/injection, schedule: Q01DX001 (ip), vehicle: saline
  T/C: 117 % of control and 122 % of control
dose: 9.75 mg/kg/injection, schedule: Q01DX001 (ip), vehicle: saline
  T/C: 150 % of control and 153 % of control and 173 % of control
dose: 10.0 mg/kg/injection, schedule: Q01DX001 (oral), vehicle: saline
  T/C: 120 % of control
dose: 11.0 mg/kg/injection, schedule: Q04DX003 (ip), vehicle: saline + alcohol
  T/C: 203 % of control
dose: 12.0 mg/kg/injection, schedule: Q04DX003 (ip), vehicle: saline
  T/C: 250 % of control
dose: 13.0 mg/kg/injection, schedule: Q01DX001 (ip), vehicle: saline
  T/C: 219 % of control and 284 % of control
dose: 14.0 mg/kg/injection, schedule: Q01DX001 (sc), vehicle: saline
  T/C: 186 % of control
dose: 15.0 mg/kg/injection, schedule: Q01DX001 (ip), vehicle: other
  T/C: 153 % of control and 155 % of control
dose: 15.0 mg/kg/injection, schedule: Q01DX001 (ip), vehicle: saline
  T/C: 175 % of control
dose: 16.0 mg/kg/injection, schedule: Q01DX009 (ip), vehicle: other
  T/C: 123 % of control
dose: 16.0 mg/kg/injection, schedule: Q01DX009 (ip), vehicle: saline
  T/C: 103 % of control
dose: 19.5 mg/kg/injection, schedule: Q01DX001 (ip), vehicle: saline
  T/C: 197 % of control and 202 % of control and 226 % of control
dose: 19.7 mg/kg/injection, schedule: Q01DX001 (oral), vehicle: saline
  T/C: 217 % of control and 250 % of control (2×)
dose: 20.0 mg/kg/injection, schedule: Q01DX001 (ip), vehicle: other
  T/C: 174 % of control
dose: 20.0 mg/kg/injection, schedule: Q01DX001 (oral), vehicle: saline
  T/C: 159 % of control and 172 % of control
dose: 22.0 mg/kg/injection, schedule: Q04DX003 (ip), vehicle: saline + alcohol
  T/C: 276 % of control
dose: 23.0 mg/kg/injection, schedule: Q01DX001 (sc), vehicle: saline
  T/C: 228 % of control
dose: 24.0 mg/kg/injection, schedule: Q01DX001 (ip), vehicle: saline
  T/C: 236 % of control
dose: 25.0 mg/kg/injection, schedule: Q01DX001 (ip), vehicle: saline
  T/C: 263 % of control and 357 % of control
dose: 25.0 mg/kg/injection, schedule: Q01DX001 (oral), vehicle: saline
  T/C: 261 % of control
dose: 29.0 mg/kg/injection, schedule: Q01DX001 (ip), vehicle: saline
  T/C: 266 % of control and 297 % of control
dose: 30.0 mg/kg/injection, schedule: Q01DX001 (ip), vehicle: saline
  T/C: 225 % of control and 440 % of control
dose: 31.0 mg/kg/injection, schedule: Q01DX001 (ip), vehicle: other
  T/C: 246 % of control and 269 % of control
dose: 39.0 mg/kg/injection, schedule: Q01DX001 (sc), vehicle: saline
  T/C: 241 % of control
dose: 39.5 mg/kg/injection, schedule: Q01DX001 (oral), vehicle: saline
  T/C: 269 % of control and 387 % of control and 405 % of control
dose: 40.0 mg/kg/injection, schedule: Q01DX001 (ip), vehicle: other
  T/C: 333 % of control
dose: 44.0 mg/kg/injection, schedule: Q04DX003 (ip), vehicle: saline + alcohol
  T/C: 87 % of control
dose: 48.0 mg/kg/injection, schedule: Q01DX001 (ip), vehicle: saline
  T/C: 296 % of control
dose: 50.0 mg/kg/injection, schedule: Q01DX001 (ip), vehicle: saline
  T/C: 150 % of control
dose: 50.0 mg/kg/injection, schedule: Q01DX001 (oral), vehicle: saline
  T/C: 238 % of control
dose: 60.0 mg/kg/injection, schedule: Q01DX001 (ip), vehicle: saline
  T/C: 112 % of control
dose: 62.0 mg/kg/injection, schedule: Q01DX001 (ip), vehicle: other
  T/C: 117 % of control
dose: 65.0 mg/kg/injection, schedule: Q01DX001 (sc), vehicle: saline
  T/C: 162 % of control
dose: 79.0 mg/kg/injection, schedule: Q01DX001 (oral), vehicle: saline
  T/C: 172 % of control and 175 % of control

Source: PubChem BioAssay AID252 (DTP/NCI, 2004)
